According to US20260347338A1, “PYRIMIDINE/PYRIDINE DERIVATIVES OR SALTS THEREOF AND PHARMACEUTICAL COMPOSITIONS COMPRISING THE SAME” (YUHAN CORPORATION, priority 2023, published 2026):
Structures can show the parent of a compound that is named as a salt.

target: T1, human recombinant HPK1 (Homo sapiens, UniProt Q92918); test: Inhibitory activity against human recombinant HPK1 (TR-FRET); assay type: biochemical; conditions: ULight-p70S6K peptide, ATP at Km, room temperature, 1 hour, 0.32 to 1000 nM compound
T1 construct: purchased BPS Bioscience
Description: Test Example: Evaluation of Inhibitory Activity Against Human Recombinant HPK1
The inhibitory activity against human recombinant HPK1 was evaluated using the Time-Resolved Fluorescence Resonance Energy Transfer (TR-FRET) technology of Perkin-Elmer. The test compound was prepared as a 20 mM stock solution with dimethyl sulfoxide (DMSO), serially diluted in a buffer solution, and used at final compound concentrations of 0.32 to 1000 nM. The evaluation of inhibitory activity was carried out at room temperature, using recombinant human HPK1 (BPS Bioscience). Briefly, recombinant human HPK1, serially diluted each test compound, ULight-p70S6K peptide substrate (PerkinElmer), and ATP at each concentration (Km and final concentration) were added to a kinase buffer solution (50 mM HEPES pH 7.4, 10 mM MgCl2, 1 mM EGTA, 3 mM MnCl2, 2 mM DTT, and 0.01% Tween-20). The resulting mixture was added to each well of a 384-well plate (Optiplate™ 384, white, PerkinElmer). The enzyme reaction was carried out at room temperature for 1 hour. After the reaction was suspended by adding 4 μL of a stop solution (10 mM EDTA) thereto, the mixture was stirred for 1 minute and then a detection solution containing Europium-labeled anti-phosphopeptide antibody (final concentration: 2 nM, PerkinElmer) was added thereto. The signals of TR-FRET at excitation wavelength (320 nm) and emission wavelength (665 nm) were detected using a microplate reader (Envision Multilabel Reader, Perkin-Elmer). Inhibition by the test compound was measured as % inhibition in the signals, compared to the control group treated with DMSO only. The IC50 value of each compound was calculated using the GraphPad Prism program (GraphPad Software, Inc., San Diego, CA, USA). The IC50 values of test compounds for inhibitory activity against HPK1 were classified as follows: • A: IC50≤10 nM • B: 10 nM<IC50≤50 nM • C: 50 nM<IC50≤100 nM • D: IC50>100 nM

T1 sequence (Q92918 whole entry): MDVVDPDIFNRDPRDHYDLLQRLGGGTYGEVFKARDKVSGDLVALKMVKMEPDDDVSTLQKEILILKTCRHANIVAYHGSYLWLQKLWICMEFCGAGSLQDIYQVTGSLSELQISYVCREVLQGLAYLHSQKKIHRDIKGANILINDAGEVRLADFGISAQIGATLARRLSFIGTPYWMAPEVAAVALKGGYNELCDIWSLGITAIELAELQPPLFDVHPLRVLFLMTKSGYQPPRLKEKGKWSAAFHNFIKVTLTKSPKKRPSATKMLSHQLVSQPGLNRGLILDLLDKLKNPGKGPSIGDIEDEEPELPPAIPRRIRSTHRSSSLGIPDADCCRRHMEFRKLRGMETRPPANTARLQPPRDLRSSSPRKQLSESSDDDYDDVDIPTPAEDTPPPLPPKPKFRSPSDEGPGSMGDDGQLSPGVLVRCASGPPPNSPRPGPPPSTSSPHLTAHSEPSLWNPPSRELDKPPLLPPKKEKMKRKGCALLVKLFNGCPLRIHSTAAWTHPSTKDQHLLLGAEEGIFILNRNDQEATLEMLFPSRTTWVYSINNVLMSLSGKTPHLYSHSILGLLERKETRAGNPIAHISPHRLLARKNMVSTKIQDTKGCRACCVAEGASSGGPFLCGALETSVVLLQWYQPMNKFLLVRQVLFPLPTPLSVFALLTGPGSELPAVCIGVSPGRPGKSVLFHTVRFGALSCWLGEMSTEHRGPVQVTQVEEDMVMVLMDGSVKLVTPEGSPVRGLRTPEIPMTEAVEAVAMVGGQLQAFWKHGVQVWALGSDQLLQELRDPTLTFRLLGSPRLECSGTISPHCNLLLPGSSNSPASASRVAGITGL

Molecule	IC50
(S)-1-(6′-ethoxy-6-((2-(2-fluoro-6-methoxyphenyl)pyrimidin-4-yl)amino)-[3,3′-bipyridin]-4-yl)piperidin-3-ol [Example 56]	10 to 50 nM
O[C@H]1CCCN(c2cc(Nc3ccnc(-c4ccc5nccnc5c4)n3)ncc2-c2cnn(C3CCOCC3)c2)C1 [Example 28, (S)-1-(2-((2-(quinoxalin-6-yl)pyrimidin-4-yl)amino)-5-(1-(tetrahydro-2H-pyran-4-yl)-1H-pyrazol-4-yl)pyridin-4-yl)piperidin-3-ol]	10 to 50 nM
COc1cc(F)cc(F)c1-c1nccc(Nc2cc(N3CCC[C@H](N)C3)c(-c3cnn(CC(F)F)c3)cn2)n1 [Example 158, (S)-N-(4-(3-aminopiperidin-1-yl)-5-(1-(2,2-difluoroethyl)-1H-pyrazol-4-yl)pyridin-2-yl)-2-(2,4-difluoro-6-methoxyphenyl)pyrimidin-4-amine hydrochloride]	≤ 10 nM
COc1cccc(F)c1-c1nc(Nc2cc(N3CCC[C@H](O)C3)c(-c3cnn(C(F)F)c3)cn2)ccc1C(N)=O [Example 142, 6-((5-(1-(difluoromethyl)-1H-pyrazol-4-yl)-4-((S)-3-hydroxypiperidin-1-yl)pyridin-2-yl)amino)-2-(2-fluoro-6-methoxyphenyl)nicotinamide]	≤ 10 nM
COc1cc(F)cc(F)c1-c1nccc(Nc2cc(N3CCC[C@H](N)C3)c(C#CC3(O)CCOCC3)cn2)n1 [Example 312, (S)-4-((4-(3-aminopiperidin-1-yl)-6-((2-(2,4-difluoro-6-methoxyphenyl)pyrimidin-4-yl)amino)pyridin-3-yl)ethynyl)tetrahydro-2H-pyran-4-ol]	≤ 10 nM
COc1cccc(F)c1-c1nccc(Nc2cc(N3CCC[C@H](N)C3)c(-c3ccc(C4CCNCC4)nc3)cn2)n1 [Example 248, (S)-4-(3-aminopiperidin-1-yl)-N-(2-(2-fluoro-6-methoxyphenyl)pyrimidin-4-yl)-6′-(piperidin-4-yl)-[3,3′-bipyridin]-6-amine hydrochloride]	≤ 10 nM
COc1cccc(F)c1-c1nccc(Nc2cc(N3CCC[C@H](O)C3)c(-c3ccc(OC4CCN(C)CC4)cn3)cn2)n1 [Example 81, (S)-1-(6′-((2-(2-fluoro-6-methoxyphenyl)pyrimidin-4-yl)amino)-5-((1-methylpiperidin-4-yl)oxy)-[2,3′-bipyridin]-4′-yl)piperidin-3-ol]	> 100 nM
COc1cccc(F)c1-c1nccc(Nc2cc(N3CCC[C@H](O)C3)c(-c3ccc(CN4CCC(N)CC4)nc3)cn2)n1 [Example 55, (S)-1-(6′-((4-aminopiperidin-1-yl)methyl)-6-((2-(2-fluoro-6-methoxyphenyl)pyrimidin-4-yl)amino)-[3,3′-bipyridin]-4-yl)piperidin-3-ol hydrochloride]	10 to 50 nM
COc1cccc(F)c1-c1nc(Nc2cc(N3CCC[C@H](O)C3)c(-c3cnn(CC(F)(F)F)c3)cn2)ccc1N [Example 180, (3S)-1-(2-((5-amino-6-(2-fluoro-6-methoxyphenyl)pyridin-2-yl)amino)-5-(1-(2,2,2-trifluoroethyl)-1H-pyrazol-4-yl)pyridin-4-yl)piperidin-3-ol]	≤ 10 nM
COc1cccc(F)c1-c1nccc(Nc2cc(N3CCC[C@H](N)C3)c(-c3cnn(C4CCNCC4)c3)cn2)n1 [Example 283, (S)-N-(4-(3-aminopiperidin-1-yl)-5-(1-(piperidin-4-yl)-1H-pyrazol-4-yl)pyridin-2-yl)-2-(2-fluoro-6-methoxyphenyl)pyrimidin-4-amine hydrochloride]	≤ 10 nM
O[C@H]1CCCN(c2cc(Nc3ccnc(-c4ccc5cccnc5c4F)n3)ncc2-c2cnn(C3CCOCC3)c2)C1 [Example 29, (S)-1-(2-((2-(8-fluoroquinolin-7-yl)pyrimidin-4-yl)amino)-5-(1-(tetrahydro-2H-pyran-4-yl)-1H-pyrazol-4-yl)pyridin-4-yl)piperidin-3-ol]	≤ 10 nM
COc1cccc(F)c1-c1nccc(Nc2cc(N3CCC[C@H](N)C3)c(-c3ccc(N4CCOCC4)cc3)cn2)n1 [Example 286, (S)-N-(4-(3-aminopiperidin-1-yl)-5-(4-morpholinophenyl)pyridin-2-yl)-2-(2-fluoro-6-methoxyphenyl)pyrimidin-4-amine hydrochloride]	≤ 10 nM
COc1cccc(F)c1-c1nccc(Nc2cc(N3CCC[C@H](N)C3)c(-c3cnn(C(F)F)c3)cn2)n1 [Example 73, (S)-N-(4-(3-aminopiperidin-1-yl)-5-(1-(difluoromethyl)-1H-pyrazol-4-yl)pyridin-2-yl)-2-(2-fluoro-6-methoxyphenyl)pyrimidin-4-amine hydrochloride]	≤ 10 nM
COc1cccc(F)c1-c1nccc(Nc2cc(N3CCC[C@H](O)C3)c(-c3ccc(C(=O)N4CCC(O)CC4)nc3)cn2)n1 [Example 38, (S)-(6′-((2-(2-fluoro-6-methoxyphenyl)pyrimidin-4-yl)amino)-4′-(3-hydroxypiperidin-1-yl)-[3,3′-bipyridin]-6-yl)(4-hydroxypiperidin-1-yl)methanone]	≤ 10 nM

Now from value to molecule:

IC50	Molecule
≤ 10 nM	COc1cccc(F)c1-c1nc(Nc2cc(N3CCC[C@H](N)C3)c(-c3cnn(CC(F)(F)F)c3)cn2)ccc1C#N [Example 318, 6-((4-((S)-3-aminopiperidin-1-yl)-5-(1-(2,2,2-trifluoroethyl)-1H-pyrazol-4-yl)pyridin-2-yl)amino)-2-(2-fluoro-6-methoxyphenyl)nicotinonitrile hydrochloride]
≤ 10 nM	COc1cccc(F)c1-c1nccc(Nc2cc(N3CCC[C@H](N)C3)c(-c3cnn([C@H]4CCNC4)c3)cn2)n1 [Example 239, N-(4-((S)-3-aminopiperidin-1-yl)-5-(1-((S)-pyrrolidin-3-yl)-1H-pyrazol-4-yl)pyridin-2-yl)-2-(2-fluoro-6-methoxyphenyl)pyrimidin-4-amine hydrochloride]
≤ 10 nM	COCC(C)(C)n1cc(-c2cnc(Nc3ccnc(-c4c(F)cccc4OC)n3)cc2N2CCC[C@H](N)C2)cn1 [Example 244, (S)-N-(4-(3-aminopiperidin-1-yl)-5-(1-(1-methoxy-2-methylpropan-2-yl)-1H-pyrazol-4-yl)pyridin-2-yl)-2-(2-fluoro-6-methoxyphenyl)pyrimidin-4-amine hydrochloride]
≤ 10 nM	COc1cccc(F)c1-c1nccc(Nc2cc(N3C[C@@H](N)CC[C@H]3C)c(-c3cnn(C(F)F)c3)cn2)n1 [Example 252, N-(4-((2R,5S)-5-amino-2-methylpiperidin-1-yl)-5-(1-(difluoromethyl)-1H-pyrazol-4-yl)pyridin-2-yl)-2-(2-fluoro-6-methoxyphenyl)pyrimidin-4-amine]
≤ 10 nM	COc1cccc(F)c1-c1nc(Nc2cc(N3CCC[C@H](O)C3)c(-c3cnn(C4CCN(C)CC4)c3)cn2)ccc1C#N [Example 325, 2-(2-fluoro-6-methoxyphenyl)-6-((4-((S)-3-hydroxypiperidin-1-yl)-5-(1-(1-methylpiperidin-4-yl)-1H-pyrazol-4-yl)pyridin-2-yl)amino)nicotinonitrile]
≤ 10 nM	COc1cccc(F)c1-c1nccc(Nc2cc(N3CCC[C@H](N)C3)c(-c3ccc(OCCN(C)C)nc3)cn2)n1 [Example 249, (S)-4-(3-aminopiperidin-1-yl)-6′-(2-(dimethylamino)ethoxy)-N-(2-(2-fluoro-6-methoxyphenyl)pyrimidin-4-yl)-[3,3′-bipyridin]-6-amine hydrochloride]
≤ 10 nM	COc1cccc(F)c1-c1nc(Nc2cc(N3CCC[C@H](N)C3)c(-c3cnn(C4CCOCC4)c3)cn2)ccc1[N+](=O)[O-] [Example 70, 4-((S)-3-aminopiperidin-1-yl)-N-(6-(2-fluoro-6-methoxyphenyl)-5-nitropyridin-2-yl)-5-(1-(tetrahydro-2H-pyran-4-yl)-1H-pyrazol-4-yl)pyridin-2-amine hydrochloride]
≤ 10 nM	COc1cc(C(=O)N2CC[C@@H](F)C2)cc(F)c1-c1nccc(Nc2cc(N3CCC[C@H](O)C3)c(-c3cnn(C(F)F)c3)cn2)n1 [Example 233, (4-(4-((5-(1-(difluoromethyl)-1H-pyrazol-4-yl)-4-((S)-3-hydroxypiperidin-1-yl)pyridin-2-yl)amino)pyrimidin-2-yl)-3-fluoro-5-methoxyphenyl)((R)-3-fluoropyrrolidin-1-yl)methanone]
≤ 10 nM	COc1cccc(F)c1-c1nc(Nc2cc(N3CCC[C@H](N)C3)c(-c3cnn(CC(F)F)c3)cn2)ccc1N [Example 169, N^2-(4-((S)-3-aminopiperidin-1-yl)-5-(1-(2,2-difluoroethyl)-1H-pyrazol-4-yl)pyridin-2-yl)-6-(2-fluoro-6-methoxyphenyl)pyridin-2,5-diamine hydrochloride]
≤ 10 nM	COc1cccc(F)c1-c1nccc(Nc2cc(N3CCC(CCN(C)C)CC3)c(-c3ccc(N4CCOCC4)nc3)cn2)n1 [Example 149, 4-(4-(2-(dimethylamino)ethyl)piperidin-1-yl)-N-(2-(2-fluoro-6-methoxyphenyl)pyrimidin-4-yl)-6′-morpholino-[3,3′-bipyridin]-6-amine]
